{"source": "patent US20260109693A1", "about": "“BUTENOLIDE COMPOUNDS CONTAINING THIAZOLIDINONE STRUCTURE AS WELL AS PREPARATION METHOD THEREFOR AND USE THEREOF” (priority 2023, published 2026)", "system": "Fusarium graminearum strains resistant to phenamacril", "format": "cell-based"}
{"substance": "5-(4-methyl-2-oxo-1-oxaspiro[4,5]-dec-3-en-3-ethylidene)-2-thio-4-thiazolidinone [Compound 3-1]", "values": [{"measurement": "inhibition rate on resistant strains compared with standard strain", "setting": "1 mg/L and 0.5 mg/L, resistant strains T10, T2-5, T32, T13, T12 vs standard strain 2021", "value": "the same as that of the standard wild-type Fusarium graminearum strain"}, {"measurement": "growth inhibition of all resistant strains", "setting": "50 mg/L, resistant strains T2-5, T10, T32, T18, T48, T79", "value": "completely inhibit the growth of all resistant strains"}]}
